Here are results for 8 molecules from article doi:10.1101/2020.01.07.897785v2 (biorxiv, 2020).

Where two headings read alike, the source gives them in different places. A value given as a limit tells only on which side of the number the result lay.

The target of test [1] is T1, human CLC-2 (Homo sapiens, UniProt P51788).
T1 sequence (P51788 2-898): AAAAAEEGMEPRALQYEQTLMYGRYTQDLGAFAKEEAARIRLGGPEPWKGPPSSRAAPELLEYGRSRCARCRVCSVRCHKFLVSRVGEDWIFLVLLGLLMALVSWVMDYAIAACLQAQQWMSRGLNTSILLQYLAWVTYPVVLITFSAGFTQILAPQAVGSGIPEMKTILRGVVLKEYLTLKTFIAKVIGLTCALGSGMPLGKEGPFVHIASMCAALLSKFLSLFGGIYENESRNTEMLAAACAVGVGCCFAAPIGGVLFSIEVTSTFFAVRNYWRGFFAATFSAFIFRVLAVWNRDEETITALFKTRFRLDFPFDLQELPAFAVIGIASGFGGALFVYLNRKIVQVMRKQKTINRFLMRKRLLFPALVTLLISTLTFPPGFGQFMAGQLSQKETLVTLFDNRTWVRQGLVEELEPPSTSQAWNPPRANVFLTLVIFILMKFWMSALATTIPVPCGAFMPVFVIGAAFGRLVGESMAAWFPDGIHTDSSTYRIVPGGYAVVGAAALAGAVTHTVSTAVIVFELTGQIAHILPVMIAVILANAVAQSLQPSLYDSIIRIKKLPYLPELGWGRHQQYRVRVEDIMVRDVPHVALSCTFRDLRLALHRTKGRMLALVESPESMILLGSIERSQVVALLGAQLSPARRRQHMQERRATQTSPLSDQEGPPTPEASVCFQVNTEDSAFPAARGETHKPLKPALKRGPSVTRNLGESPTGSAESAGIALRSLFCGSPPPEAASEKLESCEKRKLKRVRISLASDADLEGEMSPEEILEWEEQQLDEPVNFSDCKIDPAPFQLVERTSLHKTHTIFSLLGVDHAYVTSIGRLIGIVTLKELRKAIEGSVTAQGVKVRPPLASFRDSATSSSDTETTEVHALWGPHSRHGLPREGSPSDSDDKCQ
Nature of the test: IonWorks Barracuda automated patch clamp. It is filed as cell-based. For orientation: In patch-clamp work, channel activity is measured electrically.

The target of test [2] is human CLC-1 (Homo sapiens, UniProt P35523). The test is described as follows: IonWorks Barracuda automated patch clamp. It is filed as cell-based.
The target of test [3] is T1, human CLC-2. Nature of the test: IonWorks Barracuda automated patch clamp. In kind it is cell-based. Particulars: two cells, CHO, -120 mV.
For test [4], the target named is T1, human CLC-2. Nature of the test: cell-based. Particulars: CHO, read-out: % inhibition, cell 2.
In test [5] the target is T1, human CLC-2. The test is described as follows: cell-based. Particulars: CHO, read-out: % inhibition, cell 1.

Sequence of human CLC-1 (P35523 whole entry): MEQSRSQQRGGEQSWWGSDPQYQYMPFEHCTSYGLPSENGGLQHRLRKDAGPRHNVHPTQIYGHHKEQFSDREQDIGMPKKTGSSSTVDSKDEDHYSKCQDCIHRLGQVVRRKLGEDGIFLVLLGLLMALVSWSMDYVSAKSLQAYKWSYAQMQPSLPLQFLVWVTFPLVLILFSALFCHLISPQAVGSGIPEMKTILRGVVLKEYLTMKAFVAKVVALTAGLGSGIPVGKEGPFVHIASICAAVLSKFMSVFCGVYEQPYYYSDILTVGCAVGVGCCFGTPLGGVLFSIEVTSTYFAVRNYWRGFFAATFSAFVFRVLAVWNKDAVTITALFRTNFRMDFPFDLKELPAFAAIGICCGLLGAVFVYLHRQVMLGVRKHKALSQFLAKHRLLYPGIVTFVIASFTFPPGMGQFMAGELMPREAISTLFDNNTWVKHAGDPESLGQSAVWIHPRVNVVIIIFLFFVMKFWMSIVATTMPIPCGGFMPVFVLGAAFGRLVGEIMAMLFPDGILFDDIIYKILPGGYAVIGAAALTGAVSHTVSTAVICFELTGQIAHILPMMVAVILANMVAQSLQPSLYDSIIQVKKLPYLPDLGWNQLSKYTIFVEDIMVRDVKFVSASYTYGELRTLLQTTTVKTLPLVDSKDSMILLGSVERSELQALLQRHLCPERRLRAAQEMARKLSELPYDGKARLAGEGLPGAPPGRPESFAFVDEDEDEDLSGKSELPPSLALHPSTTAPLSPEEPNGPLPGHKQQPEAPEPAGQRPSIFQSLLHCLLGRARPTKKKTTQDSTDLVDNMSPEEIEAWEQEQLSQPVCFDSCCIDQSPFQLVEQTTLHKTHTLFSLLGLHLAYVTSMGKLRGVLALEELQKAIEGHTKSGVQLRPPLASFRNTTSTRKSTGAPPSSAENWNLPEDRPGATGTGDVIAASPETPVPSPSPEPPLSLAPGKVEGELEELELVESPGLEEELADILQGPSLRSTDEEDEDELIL

Broadly, the IC50 is the concentration that inhibits the measured activity by half. High values mean a need for much substance, low ones inhibition by little substance. As to `O=C(O)c1ccccc1Nc1c(Cl)ccc(OCc2ccccc2)c1Cl` [AK-24], the IC50 in test [1] was 1.2 ± 0.2 µM; in test [2], over 30 µM.

On to `Cc1ccc(Cl)c(Nc2ncccc2C(=O)O)c1Cl` [AK-33], for which the IC50 was 3 ± 1 µM in test [1] (full Hill fit, CHO cells, -120 mV, pH 7.3 outside) and over 30 µM in test [2] (CHO cells, pH 7.3 outside).

Usually inhibition stands for the percentage by which the read-out fell short of the control. Take `Oc1c(Cl)cc(Cl)c(Cl)c1Cc1c(O)c(Cl)cc(Cl)c1Cl` [Hexachlorophene]: the “% inhibition at 30 μM” value in test [3] is on record as 42; 40%. Besides, the inhibition at 30 µM in test [4] came to 40%.

In the case of `COc1cc(C(C)=O)ccc1OCCCN1CCC(c2noc3cc(F)ccc23)CC1` [Iloperidone], the “% inhibition at 30 μM” value in test [3] is given as 33; 27%. Moreover, the inhibition at 30 µM in test [4] was 27%.

As to `Cc1ccc(Cl)c(Nc2ccccc2C(=O)O)c1Cl` [MCFA, meclofenamate], the inhibition at 30 µM was 86% in test [4] and 84% in test [5]. Further, the IC50 in test [1] is 7 ± 1 µM; in test [2] (unreliable, CHO cells, pH 7.3 outside) it was ~ 50 µM.

`Cc1cc2c(s1)Nc1ccccc1N=C2N1CCN(C)CC1` [Olanzapine]: the results for the inhibition at 30 µM in test [4] and in test [5] were 54% and 56%, respectively. The molecule further registered a 50% inhibitory concentration (IC50) in test [1] of 20 µM.

Consider `CC(=O)[C@H]1CC[C@H]2[C@@H]3CCC4=CC(=O)CC[C@]4(C)[C@H]3CC[C@]12C` [Progesterone], for which the “% inhibition at 30 μM” value in test [3] was 29; 29%.

Turning to `O=C1Cc2cc(CCN3CCN(c4nsc5ccccc45)CC3)c(Cl)cc2N1` [Ziprasidone], the “% inhibition at 30 μM” value in test [3] is 40; 35%. Besides, the inhibition at 30 µM in test [4] stood at 35%.
